# In ChEMBL document CHEMBL4602684, “Siderophores from the Entomopathogenic Fungus Beauveria bassiana” (J Nat Prod, 2020):
# Counter-ions that a name gives are not always drawn. Active and inactive are the calls of the source. The calls are words filed in the database; no cut-off is given here.
# Tests used:
# [1] = Binding affinity to Fe3+ assessed as formation of Fe3+-compound complex in presence of FeCl3 by HRESIMS method
# [2] = Binding affinity to Fe3+ assessed as formation of Fe3+-compound complex at 100 ug/disk by CAS agar disk diffusion method
# [3] = Binding affinity to Fe3+ assessed as formation of Fe3+-compound complex incubated for 22 hrs by liquid CAS assay
# [4] = Binding affinity to Fe3+ assessed as formation of Fe3+-compound complex stoichiometry ratio of 2:1 by HRESIMS method
# [5] = Binding affinity to Fe3+ assessed as formation of Fe3+-compound complex stoichiometry ratio of 3:1 by HRESIMS method
# [6] = Binding affinity to Fe3+ assessed as formation of Fe3+-compound complex stoichiometry ratio of 1:1 by HRESIMS method
SMILES,Activity [1],Activity [2],EC50 [3] [µM],Activity [4],Activity [5],Activity [6]
CO[C@H]1[C@H](O)[C@H](O)[C@H](OCC/C(C)=C/C(=O)N(O)CCC[C@@H]2NC(=O)[C@H](CCCN(O)C(=O)/C=C(\C)CCO)NC2=O)O[C@@H]1CO,Active,Active,–,–,–,–
C[C@@](O)(CCO)CC(=O)N(O)CCC[C@@H]1NC(=O)[C@H](CCCN(O)C(=O)C[C@](C)(O)CCO)NC1=O,Active,Active,–,–,–,–
CO[C@H]1[C@H](O)[C@H](O)[C@H](OCC[C@@](C)(O)CC(=O)N(O)CCC[C@@H]2NC(=O)[C@H](CCCN(O)C(=O)/C=C(\C)CCO)NC2=O)O[C@@H]1CO,Active,Active,–,–,–,–
C/C(=C\C(=O)N(O)CCC[C@@H]1NC(=O)[C@H](CCCN(O)C(=O)C[C@](C)(O)CCO[C@@H]2O[C@H](CO)[C@@H](O)[C@H](O)[C@@H]2O)NC1=O)CCO,Active,Active,–,–,–,–
C/C(=C\C(=O)N(O)CCC[C@@H]1NC(=O)[C@H](CCCN(O)C(=O)/C=C(\C)CCO)NC1=O)CCO,Active,Active,13,–,–,–
C/C(=C\C(=O)NCCC[C@@H]1NC(=O)[C@H](CCCNC(=O)/C=C(\C)CCO)NC1=O)CCO,inactive,inactive,–,–,–,–
C/C(=C\C(=O)N(O)CCC[C@@H]1NC(=O)[C@H](CCCN(O)C(=O)/C=C(\C)CCO[C@@H]2O[C@H](CO)[C@@H](O)[C@H](O)[C@@H]2O)NC1=O)CCO,Active,Active,–,–,–,–
C/C(=C\C(=O)N(O)CCC[C@@H](N)C(=O)O)CCO,–,inactive,–,–,–,–
CO[C@H]1[C@H](O)[C@H](O)[C@H](OCC/C(C)=C/C(=O)N(O)CCC[C@@H](C(=O)O)N(C)C)O[C@@H]1CO,–,inactive,–,Active,inactive,Active
CC(=O)N(O)CCCCCNC(=O)CCC(=O)N(O)CCCCCNC(=O)CCC(=O)N(O)CCCCCN [DEFEROXAMINE MESYLATE],–,–,20,–,–,–
CO[C@H]1[C@H](O)[C@H](O)[C@H](OCC/C(C)=C/C(=O)N(O)CCC[C@@H](C(=O)O)[N+](C)(C)[O-])O[C@@H]1CO,–,inactive,–,Active,inactive,Active
C/C(=C\C(=O)N(O)CCC[C@@H]1NC(=O)[C@H](CCCN(O)C(=O)/C=C(\C)CCO[C@@H]2O[C@H](CO)[C@@H](O)[C@H](O)[C@@H]2O)NC1=O)CCOC(=O)[C@H](CCCN(O)C(=O)/C=C(\C)CCO[C@@H]1O[C@H](CO)[C@@H](O)[C@H](O)[C@@H]1O)[N+](C)(C)[O-],Active,Active,15.7,–,–,–
C/C(=C\C(=O)N(O)CCC[C@@H]1NC(=O)[C@H](CCC[N+](=O)[O-])NC1=O)CCO,–,inactive,–,Active,inactive,Active
C/C(=C\C(=O)N(O)CCC[C@@H]1NC(=O)[C@H](CCCN(O)C(=O)C[C@](C)(O)CCO)NC1=O)CCO,Active,Active,–,–,–,–
